From PubChem BioAssay (NCI) come the findings set out here.

Some test systems named below: 786-0 renal; SK-MEL-5 melanoma; MALME-3M melanoma; SR leukemia; COLO 205 colon; TK-10 renal; HOP-92 NSCLC; HT29 colon.
What all share (assay): DTP human tumour cell line panel, 48 h

The structures appear in SMILES notation.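 Each compound was tested at five concentrations against cells in 96-well plates for 48 hours. Here, GI50 denotes the concentration required for 50% inhibition of growth. TGI is the concentration that stops growth completely.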

As usually defined, the GI50 is the concentration that inhibits growth by half. In general, TGI refers to the concentration at which net growth stops. Low readings indicate more potent growth arrest, high ones less potent growth arrest.

Turning to `O=C1c2cc3c(cc2-c2c1c1cc(Cl)c(Cl)cc1c(=O)n2C[C@H](O)CO)OCO3`, the GI50 is less than 0.01 µM in the test with 786-0 renal; less than 0.01 µM in the test on SK-MEL-5 melanoma; 0.0154 µM in the test on MALME-3M melanoma; less than 0.01 µM with SR leukemia; less than 0.01 µM in the test with COLO 205 colon; 0.0578 µM with TK-10 renal. Also, the TGI is 0.187 µM in the test on 786-0 renal; 0.0134 µM with SK-MEL-5 melanoma; 0.156 µM in the test with MALME-3M melanoma; 3.78 µM in the test with SR leukemia; 0.291 µM with COLO 205 colon; 0.934 µM in the test with TK-10 renal.
Regarding `COc1ccc(Cn2c(N)c(S(=O)(=O)c3ccc(Cl)cc3)c3nc(C#N)c(C#N)nc32)cc1`, the GI50 was 3.33 µM with 786-0 renal; 49.4 µM in the test on SK-MEL-5 melanoma; 29.9 µM with SR leukemia; more than 50 µM in the test with COLO 205 colon; 11.1 µM in the test with HOP-92 NSCLC; 11.6 µM with TK-10 renal. For the same molecule, the TGI with 786-0 renal was more than 50 µM; in the test on SK-MEL-5 melanoma it was more than 50 µM; with SR leukemia it was more than 50 µM; with COLO 205 colon, more than 50 µM; in the test on HOP-92 NSCLC it was more than 50 µM; in the test on TK-10 renal it was 41.5 µM.
For the molecule `CCOC(=O)c1c(-c2ccc(OC)cc2)c(C#N)c2c(C#N)c(N)nn2c1N`, the GI50 with 786-0 renal was 3.85 µM; in the test on HT29 colon it was 3.98 µM; in the test with SK-MEL-5 melanoma, 1.78 µM; with MALME-3M melanoma it was 4.05 µM; in the test on SR leukemia, 2.05 µM; in the test with COLO 205 colon it was 2.8 µM. Moreover, the GI50 in the test with TK-10 renal is 16.4 µM. Besides, the TGI with 786-0 renal was 23.3 µM; with HT29 colon it was more than 100 µM; with SK-MEL-5 melanoma it was 4.41 µM; in the test with MALME-3M melanoma, 82.7 µM; in the test with SR leukemia, more than 100 µM; in the test with COLO 205 colon, 9.98 µM. In the test with TK-10 renal, this molecule had a TGI of 69.2 µM.
Turning to `COc1ccc(-c2nsc3c2NC(=O)CC3c2cccc(OC)c2)cc1` (stereo not given), the GI50 is 12.5 µM in the test on 786-0 renal; 0.427 µM in the test with HT29 colon; 0.445 µM in the test on SK-MEL-5 melanoma; 2.32 µM in the test on MALME-3M melanoma; 0.801 µM with COLO 205 colon; 2.31 µM in the test on HOP-92 NSCLC. Also, the TGI is more than 100 µM in the test with 786-0 renal; more than 100 µM in the test with HT29 colon; 17.5 µM with SK-MEL-5 melanoma; 66.1 µM with MALME-3M melanoma; 6.92 µM with COLO 205 colon; 43 µM in the test with HOP-92 NSCLC.
On to `Clc1nc(Cl)nc(Nc2cccc3ccccc23)n1`, for which the GI50 is more than 100 µM in the test with 786-0 renal; more than 100 µM in the test with HT29 colon; 67.3 µM with SK-MEL-5 melanoma; 76.9 µM with MALME-3M melanoma; 18.3 µM with SR leukemia; more than 100 µM with COLO 205 colon. In addition, the GI50 in the test on TK-10 renal was more than 100 µM. For the same molecule, the TGI was more than 100 µM in the test with 786-0 renal; more than 100 µM in the test on HT29 colon; more than 100 µM with SK-MEL-5 melanoma; more than 100 µM in the test on MALME-3M melanoma; 48.3 µM with SR leukemia; more than 100 µM with COLO 205 colon. This molecule came in with a TGI in the test with TK-10 renal of more than 100 µM.
In the case of `O=[P@@]1(c2ccccc2)O[C@H](COCc2ccccc2)[C@@H](OCc2ccccc2)[C@H](OCc2ccccc2)[C@H]1NCc1ccccc1`, the GI50 with 786-0 renal is 3.03 µM; in the test with HT29 colon, 3.21 µM; in the test on SK-MEL-5 melanoma, 2.59 µM; in the test on SR leukemia it was 2.37 µM; in the test with COLO 205 colon, 1.93 µM; in the test on TK-10 renal, 3.69 µM. Also, the TGI with 786-0 renal is more than 100 µM; in the test with HT29 colon, more than 100 µM; in the test on SK-MEL-5 melanoma it was 6.79 µM; in the test on SR leukemia, 6.69 µM; with COLO 205 colon it was 3.71 µM; in the test with TK-10 renal it was more than 100 µM.
On to `COC(=O)c1s/c(=N\C(=S)N(C)C)n(-c2ccc(Cl)cc2)c1C(=O)OC`, for which the TGI in the test on 786-0 renal is more than 100 µM; with HT29 colon, more than 100 µM; with SK-MEL-5 melanoma, more than 10 µM; in the test on MALME-3M melanoma, more than 100 µM; in the test on SR leukemia, more than 100 µM; in the test with COLO 205 colon, more than 100 µM. Further, the TGI with TK-10 renal is more than 100 µM.
`COC(=O)c1ccc(-c2c(C#N)[n+](=O)c3cc(Cl)c(Cl)cc3n2[O-])cc1`: the GI50 in the test with 786-0 renal was 17.6 µM; in the test with HT29 colon, 19.9 µM; with SK-MEL-5 melanoma, 22 µM; in the test on MALME-3M melanoma, 20 µM; in the test on COLO 205 colon it was 22 µM; in the test with HOP-92 NSCLC, 11.1 µM. Also, in the test with TK-10 renal, the GI50 is 33.6 µM. Further, the TGI in the test on 786-0 renal came to 35.6 µM; in the test with HT29 colon, 58 µM; in the test with SK-MEL-5 melanoma, 47.7 µM; in the test on MALME-3M melanoma, 44.3 µM; in the test with COLO 205 colon it was 52.1 µM; with HOP-92 NSCLC it was 34.9 µM. The TGI in the test with TK-10 renal was 95.1 µM.
As to `O=C(Nc1cc(C(F)(F)F)ccc1Cl)c1cccc(NC2=C(Cl)C(=O)N(Cc3ccccc3)C2=O)c1`, the GI50 with 786-0 renal is 38.5 µM; in the test with HT29 colon, 43.1 µM; in the test with SK-MEL-5 melanoma, 12.8 µM; in the test on SR leukemia, 1.26 µM; in the test with COLO 205 colon, 41.5 µM; in the test with HOP-92 NSCLC, 19.1 µM. Further, in the test on TK-10 renal, the GI50 was 34.2 µM. The TGI was more than 100 µM in the test on 786-0 renal; more than 100 µM in the test on HT29 colon; more than 100 µM in the test on SK-MEL-5 melanoma; 3.16 µM in the test with SR leukemia; more than 100 µM in the test with COLO 205 colon; more than 100 µM in the test on HOP-92 NSCLC. This molecule returned a TGI in the test with TK-10 renal of more than 100 µM.
Consider `O=C1CCC/C=C\C[C@H]2C=CC(=O)/C2=C/C[C@H](C/C=C\CC(F)(F)F)O1`, for which the GI50 in the test on 786-0 renal was 0.311 µM; in the test with HT29 colon, 0.352 µM; with SK-MEL-5 melanoma it was 0.342 µM; with MALME-3M melanoma it was 0.587 µM; with COLO 205 colon it was 0.368 µM; with HOP-92 NSCLC, 1.85 µM. For the same molecule, the GI50 with TK-10 renal is 0.618 µM. Also, the TGI amounted to 0.677 µM in the test with 786-0 renal; 0.696 µM in the test with HT29 colon; 0.78 µM with SK-MEL-5 melanoma; 2.29 µM with MALME-3M melanoma; 0.726 µM in the test on COLO 205 colon; 5.01 µM in the test on HOP-92 NSCLC. This molecule also came in with a TGI with TK-10 renal of 2.17 µM.
